Data from US6495525B1, “VLA-4 inhibitor: oMePUPA-V” (Biogen, Inc., priority 1998, dated 2002).
pIC50: −log10 of the molar value.

Biological target: T1, α4β7 (Homo sapiens, UniProt P13612+P26010)
T1 construct: endogenous in cells; host or cells: JY cells
T1 sequence (P13612 34-1032): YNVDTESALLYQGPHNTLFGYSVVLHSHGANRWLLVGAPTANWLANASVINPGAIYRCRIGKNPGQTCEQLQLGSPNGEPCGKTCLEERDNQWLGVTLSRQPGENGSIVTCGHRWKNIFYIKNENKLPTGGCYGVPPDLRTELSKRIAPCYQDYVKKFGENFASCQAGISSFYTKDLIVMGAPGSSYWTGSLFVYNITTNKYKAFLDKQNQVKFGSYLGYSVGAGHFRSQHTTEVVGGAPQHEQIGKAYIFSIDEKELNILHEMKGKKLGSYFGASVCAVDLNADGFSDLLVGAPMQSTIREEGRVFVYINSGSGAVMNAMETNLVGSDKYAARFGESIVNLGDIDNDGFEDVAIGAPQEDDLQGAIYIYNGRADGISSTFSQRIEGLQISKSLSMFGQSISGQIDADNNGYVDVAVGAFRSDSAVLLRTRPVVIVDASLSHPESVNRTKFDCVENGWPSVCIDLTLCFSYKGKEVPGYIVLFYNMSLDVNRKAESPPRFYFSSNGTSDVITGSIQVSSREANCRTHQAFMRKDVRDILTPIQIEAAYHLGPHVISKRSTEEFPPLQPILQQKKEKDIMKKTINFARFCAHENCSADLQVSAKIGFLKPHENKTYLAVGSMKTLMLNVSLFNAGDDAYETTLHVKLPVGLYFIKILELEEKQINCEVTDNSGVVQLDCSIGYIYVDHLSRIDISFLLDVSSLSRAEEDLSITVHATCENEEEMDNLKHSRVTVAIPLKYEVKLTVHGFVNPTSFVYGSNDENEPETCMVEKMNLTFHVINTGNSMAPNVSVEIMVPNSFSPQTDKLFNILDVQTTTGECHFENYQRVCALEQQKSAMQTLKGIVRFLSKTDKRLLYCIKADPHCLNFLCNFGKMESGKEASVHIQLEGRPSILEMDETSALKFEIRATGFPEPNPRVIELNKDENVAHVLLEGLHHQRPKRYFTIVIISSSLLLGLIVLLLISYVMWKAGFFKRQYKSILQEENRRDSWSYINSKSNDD
T1 sequence (P26010 20-798): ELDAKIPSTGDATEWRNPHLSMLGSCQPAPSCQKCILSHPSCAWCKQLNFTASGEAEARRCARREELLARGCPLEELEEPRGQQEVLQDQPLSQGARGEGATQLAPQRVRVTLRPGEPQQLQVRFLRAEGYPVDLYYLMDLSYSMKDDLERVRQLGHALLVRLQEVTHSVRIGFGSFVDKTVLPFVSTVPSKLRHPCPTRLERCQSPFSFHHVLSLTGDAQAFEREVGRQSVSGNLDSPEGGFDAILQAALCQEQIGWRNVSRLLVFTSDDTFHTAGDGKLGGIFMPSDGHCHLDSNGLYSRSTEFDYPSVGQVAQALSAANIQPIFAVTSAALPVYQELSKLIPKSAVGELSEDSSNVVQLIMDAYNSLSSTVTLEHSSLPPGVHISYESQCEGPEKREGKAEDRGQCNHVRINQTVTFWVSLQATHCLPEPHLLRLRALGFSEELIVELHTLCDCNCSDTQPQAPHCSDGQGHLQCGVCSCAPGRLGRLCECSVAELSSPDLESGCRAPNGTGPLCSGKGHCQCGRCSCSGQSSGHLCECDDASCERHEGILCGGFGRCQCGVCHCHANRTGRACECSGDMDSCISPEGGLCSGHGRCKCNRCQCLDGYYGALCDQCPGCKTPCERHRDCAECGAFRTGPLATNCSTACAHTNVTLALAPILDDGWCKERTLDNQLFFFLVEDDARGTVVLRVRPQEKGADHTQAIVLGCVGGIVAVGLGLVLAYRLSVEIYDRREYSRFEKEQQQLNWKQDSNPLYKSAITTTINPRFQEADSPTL
Assay: VCAM-Ig Direct Binding Assay on JY cells (α4β7)
Method: In order to assess the VLA-4 inhibitory specificity of the compounds of this invention, assays for other major groups of integrins, i.e., β2and β3, as well as other β1 integrins, such as VLA-5, VLA-6 and α4β7 are performed. These assays may be similar to the adhesion inhibition and direct binding assays described above, substituting the appropriate integrin-expressing cell and corresponding ligand. For example, polymorphonuclear cells (PMNs) express β2 integrins on their surface and bind to ICAM. β3 integrins are involved in platelet aggregation and inhibition may be measured in a standard platelet aggregation assay. VLA-5 binds specifically to Arg-Gly-Asp sequences, while VLA-6 binds to laminin. α4β7 is a recently discovered homologue of VLA-4, which also binds fibronectin and VCAM. Specificity with respect to α4β7 is determined in a binding assay that utilizes the above-described VCAM-IgG-enzyme marker conjugate and a cell line that expresses α4β7, but not VLA-4, such as RPMI-8866 or JY cells.
Binding to α4β7 was assessed on JY cells in the presence of Mn^+2. In the binding assay, VCAM-Ig and oMePUPA-V compete for binding to α4β7 on JY cells (See section 4.1.1 for assay protocol). In the cell adhesion assay, oMePUPA-V was tested for its ability to block JY (α4β7) cell binding to CS1/BSA conjugate

## Cc1ccccc1NC(=O)Nc1ccc(CC(=O)N2CCC[C@H]2C(=O)N[C@H](C)CC(=O)O)cc1 [oMePUPA-V]
  measurable activity against α4β7: > 100 µM
@ 100 μM, Mn+2, read-out: inhibition, JY (α4β7) VCAM-Ig DBA
  inhibition at 100 µM: 3%
JY cells, Mn+2
  blocking of α4β7 binding to VCAM-Ig (in words): does not block
read-out: IC50 against α4β7-VCAM-Ig binding
  pIC50: < 4.00
